ChEMBL document CHEMBL1201862, “PubChem BioAssay data set” (2004)
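In this assay, cells in 96-well plates receive the compound at five concentrations for 48 hours. Endpoints are linearly interpolated between the surrounding concentrations. GI50 = concentration required for 50% inhibition of growth.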 The source made the active and inactive calls. No stated cut-off is given here; in the data, active = GI50 up to about 1.1 µM and inactive = higher.

Columns and labels:
Experiment in all cases: DTP human tumour cell line panel, 48 h
HOP-62 = system: HOP-62
CCRF-CEM = system: CCRF-CEM
SW-620 = system: SW-620
NCI-H23 = system: NCI-H23
U-251 = system: U-251
TK-10 = system: TK-10
HOP-92 = system: HOP-92
XF498 = system: XF498
KM12 = system: KM12
UACC-62 = system: UACC-62
A549 = system: A549
SK-MEL-5 = system: SK-MEL-5
DMS-114 = system: DMS-114
SN12C = system: SN12C
DMS-273 = system: DMS-273
SK-MEL-28 = system: SK-MEL-28
SK-MEL-2 = system: SK-MEL-2
IGROV-1 = system: IGROV-1
CAKI-1 = system: CAKI-1
LOX IMVI = system: LOX IMVI
NCI-H460 = system: NCI-H460
UO-31 = system: UO-31
UACC-257 = system: UACC-257
M19-MEL = system: M19-MEL
SK-OV-3 = system: SK-OV-3
SNB-78 = system: SNB-78
LXFL 529 = system: LXFL 529
RXF 393 = system: RXF 393
SR = system: SR
SF-539 = system: SF-539
SF-295 = system: SF-295
SNB-19 = system: SNB-19
NCI-H226 = system: NCI-H226
ACHN = system: ACHN
HT-29 = system: HT-29
OVCAR-4 = system: OVCAR-4
K562 = system: K562
HCC 2998 = system: HCC 2998
OVCAR-8 = system: OVCAR-8
786-0 = system: 786-0
MOLT-4 = system: MOLT-4
COLO 205 = system: COLO 205
Malme-3M = system: Malme-3M
DLD-1 = system: DLD-1
EKVX = system: EKVX
SF-268 = system: SF-268
HL-60 = system: HL-60
NCI-H522 = system: NCI-H522
A498 = system: A498

Measured: GI50

COc1cc2ccnc(-c3c4ccccc4c(N)c4c(OC)c(OC)ccc34)c2cc1OC
inactive: HOP-62 2.96 µM | CCRF-CEM 2.37 µM | SW-620 2.28 µM | NCI-H23 3.21 µM | U-251 3.37 µM | TK-10 10.4 µM | HOP-92 1.79 µM | XF498 2.64 µM | KM12 2.38 µM | UACC-62 2.79 µM | A549 4.17 µM | SK-MEL-5 3.27 µM | DMS-114 2.59 µM | SN12C 3.47 µM | DMS-273 1.53 µM | SK-MEL-28 2.36 µM | SK-MEL-2 4.86 µM | IGROV-1 3.24 µM | CAKI-1 2.65 µM | LOX IMVI 1.52 µM | NCI-H460 1.79 µM | UO-31 3.18 µM | UACC-257 2.32 µM | M19-MEL 3.87 µM | SK-OV-3 7.13 µM | SNB-78 3.66 µM | LXFL 529 3.6 µM | RXF 393 2.4 µM | SR 1.8 µM | SF-539 2.09 µM | SF-295 3.18 µM | SNB-19 2.85 µM | NCI-H226 2.07 µM | ACHN 3.54 µM | HT-29 2.64 µM | OVCAR-4 1.97 µM | K562 1.55 µM | HCC 2998 2.62 µM | OVCAR-8 3.6 µM | 786-0 2.65 µM | MOLT-4 1.49 µM | COLO 205 1.58 µM | Malme-3M 3.32 µM | DLD-1 3.04 µM | EKVX 10.4 µM | SF-268 3.01 µM | HL-60 1.39 µM | NCI-H522 3.16 µM | A498 3.02 µM
